In PubChem BioAssay AID196 (DTP/NCI, 2004):
Where “and” joins values, the source holds several entries; their conditions need not be identical. Identical values can stand only once. Inconclusive results and toxic doses are left out.

Test system: BDF1 mice, intracerebral B16 melanoma, median survival T/C
Test: NCI In Vivo Anticancer Drug Screen. Data for tumor model B16 Melanoma (intracerebral) in B6D2F1 (BDF1) mice
Details: endpoint: median survival time, higher = longer survival
Method: The antitumor activity of compounds was measured in mice bearing transplantable tumors. Survival or tumor size were measured and the results are expressed as the measurement made in the treated group (T) divided by the measurement made in the vehicle treated control group (C). The tumor model used in this assay is B16 Melanoma (intracerebral) in B6D2F1 (BDF1) mice

[1] = dose: 12.5 mg/kg/injection, schedule: Q01DX009 (ip), vehicle: saline
[2] = dose: 25.0 mg/kg/injection, schedule: Q01DX009 (ip), vehicle: saline
[3] = dose: 50.0 mg/kg/injection, schedule: Q01DX009 (ip), vehicle: saline
[4] = dose: 100.0 mg/kg/injection, schedule: Q01DX009 (ip), vehicle: saline
[5] = dose: 0.75 mg/kg/injection, schedule: Q01DX009 (ip), vehicle: saline
[6] = dose: 1.5 mg/kg/injection, schedule: Q01DX009 (ip), vehicle: saline
[7] = dose: 3.0 mg/kg/injection, schedule: Q01DX009 (ip), vehicle: saline
[8] = dose: 6.0 mg/kg/injection, schedule: Q01DX009 (ip), vehicle: saline

In the case of `Cc1c2ccncc2c(C)c2c1[nH]c1ccccc12`, the T/C (dose: 10.0 mg/kg/injection, schedule: Q01DX009 (ip), vehicle: saline) is reported as 113 % of control.
For `CN(C)/N=N/c1nc[nH]c1C(N)=O`, the T/C [1] was 116 % of control and 113 % of control, the T/C (dose: 25.0 mg/kg/injection, schedule: Q01DX009 (ip), vehicle: saline with Tween-80) was 105 % of control and the T/C [2] was 116 % of control and 122 % of control. For the same compound, the T/C (dose: 50.0 mg/kg/injection, schedule: Q01DX009 (ip), vehicle: saline with Tween-80) was 111 % of control, the T/C [3] was 109 % of control and the T/C (dose: 100.0 mg/kg/injection, schedule: Q01DX009 (ip), vehicle: saline with Tween-80) was 117 % of control. For the same compound, the T/C [4] was 122 % of control and the T/C (dose: 200.0 mg/kg/injection, schedule: Q01DX009 (ip), vehicle: saline with Tween-80) was 112 % of control.
In the case of `O=NN(CCF)C(=O)NC1CCCCC1`, the T/C (dose: 5.1 mg/kg/injection, schedule: Q01DX001 (ip), vehicle: other) is reported as 107 % of control, the T/C (dose: 10.2 mg/kg/injection, schedule: Q01DX001 (ip), vehicle: other) is reported as 112 % of control and the T/C (dose: 13.0 mg/kg/injection, schedule: Q01DX001 (ip), vehicle: Klucel (hydroxypropylcellulose) (HPC)) is reported as 104 % of control. The T/C (dose: 17.8 mg/kg/injection, schedule: Q01DX001 (ip), vehicle: Klucel (hydroxypropylcellulose) (HPC)) was 111 % of control, the T/C (dose: 21.6 mg/kg/injection, schedule: Q01DX001 (ip), vehicle: Klucel (hydroxypropylcellulose) (HPC)) was 174 % of control and the T/C (dose: 26.7 mg/kg/injection, schedule: Q01DX001 (ip), vehicle: Klucel (hydroxypropylcellulose) (HPC)) was 115 % of control. For the same compound, the T/C (dose: 40.0 mg/kg/injection, schedule: Q01DX001 (ip), vehicle: Klucel (hydroxypropylcellulose) (HPC)) was 180 % of control, the T/C (dose: 43.2 mg/kg/injection, schedule: Q01DX001 (ip), vehicle: other) was 180 % of control and the T/C (dose: 60.0 mg/kg/injection, schedule: Q01DX001 (ip), vehicle: Klucel (hydroxypropylcellulose) (HPC)) was 168 % of control and 269 % of control. For the same compound, the T/C (dose: 90.0 mg/kg/injection, schedule: Q01DX001 (ip), vehicle: Klucel (hydroxypropylcellulose) (HPC)) was 263 % of control and the T/C (dose: 162.8 mg/kg/injection, schedule: Q01DX001 (ip), vehicle: other) was 235 % of control.
`COC(COC(=O)N1CCN(C=O)CC1)C1=C(N2CC2)C(=O)C(C)=C(N2CC2)C1=O` (stereo not drawn) was tested, and the T/C [5] was 103 % of control, the T/C [6] was 105 % of control and the T/C [7] was 114 % of control. The T/C [8] was 86 % of control.
With `CN(Cc1cnc2nc(N)nc(N)c2n1)c1c(Cl)cc(C(=O)NC(CCC(=O)O)C(=O)O)cc1Cl` (stereo not drawn) the T/C (dose: 8.0 mg/kg/injection, schedule: Q01DX009 (ip), vehicle: Klucel (hydroxypropylcellulose) (HPC)) was 100 % of control, the T/C (dose: 16.0 mg/kg/injection, schedule: Q01DX009 (ip), vehicle: Klucel (hydroxypropylcellulose) (HPC)) was 110 % of control and the T/C (dose: 32.0 mg/kg/injection, schedule: Q01DX009 (ip), vehicle: Klucel (hydroxypropylcellulose) (HPC)) was 94 % of control. For the same compound, the T/C (dose: 64.0 mg/kg/injection, schedule: Q01DX009 (ip), vehicle: Klucel (hydroxypropylcellulose) (HPC)) was 96 % of control and the T/C (dose: 128.0 mg/kg/injection, schedule: Q01DX009 (ip), vehicle: Klucel (hydroxypropylcellulose) (HPC)) was 100 % of control.
For `O=C1C=CN(C2OC(CO)C(O)C2O)C(=O)C1` (stereo not drawn), the T/C [1] was 90 % of control, the T/C [2] was 97 % of control and the T/C [3] was 97 % of control. The T/C [4] was 100 % of control, the T/C (dose: 200.0 mg/kg/injection, schedule: Q01DX009 (ip), vehicle: saline) was 111 % of control and the T/C (dose: 400.0 mg/kg/injection, schedule: Q01DX009 (ip), vehicle: saline) was 107 % of control.
With `C[C@@H]1C[C@H]2[C@@H]3CCC4=CC(=O)C=C[C@]4(C)[C@@]3(F)[C@@H](O)C[C@]2(C)[C@@]1(O)C(=O)CO` the T/C [5] was 108 % of control, the T/C [6] was 104 % of control and the T/C [7] was 118 % of control and 104 % of control. For the same compound, the T/C [8] was 104 % of control and 112 % of control and the T/C (dose: 12.0 mg/kg/injection, schedule: Q01DX009 (ip), vehicle: saline) was 122 % of control.
With `COc1ccc(C(=O)/C(Br)=C/C(=O)O)cc1` the T/C (dose: 10.0 mg/kg/injection, schedule: Q01DX005 (ip), vehicle: saline) was 91 % of control and 105 % of control, the T/C (dose: 20.0 mg/kg/injection, schedule: Q01DX005 (ip), vehicle: saline) was 90 % of control and 93 % of control and the T/C (dose: 40.0 mg/kg/injection, schedule: Q01DX005 (ip), vehicle: saline) was 97 % of control and 99 % of control.
